According to patent US7285528B2, “Agonists and antagonists of gonadotropin-releasing hormone-2, and use thereof” (priority 2002, dated 2007):
Where a SMILES comes first, the peptide text is derived from it. [ ]: non-standard residue; d: D form. dPhe(4-Cl) = N[C@H](Cc1ccc(Cl)cc1)C(=O)O; d2Nal = N[C@H](Cc1ccc2ccccc2c1)C(=O)O; dCit = NC(=O)NCCC[C@@H](N)C(=O)O; d3Pal = N[C@H](Cc1cccnc1)C(=O)O

Assays:
bfGnRHR-2 = assay: Inhibition of GnRH-2-induced IP production, GH3 cells expressing bfGnRHR-2; assay type: cell-based, bullfrog
Procedure: (§1) GH3 cell lines were obtained from the Cell Line Bank at the Cancer Research Center, Seoul National University College of Medicine, located in Seoul, Republic of Korea. The GH3 cell lines were infected with retroviruses comprising genes encoding bfGnRHR-1, bfGnRHR-2, and bfGnRHR-3 which are bullfrog GnRH receptors, and rat GnRHR, and cell lines expressing each of these receptors were obtained. The GH3 cells expressing bfGnRHR-1, bfGnRHR-2, bfGnRHR-3, and rat GnRHR were cultured on 12-well plates. After 24 hours, the cells were cultured again for 24 hours in a media containing no inositol, to which H^3-myoinositol was added. The resultant cells were washed with buffer A (140 mM NaCl, 20 mM HEPES, 4 mM KCl, 8 mM D-Glucose, 1 mM MgCl2, 1 mM CaCl2, 1 mg/ml BSA) and then cultured in buffer A containing 10 mM LiCl at 37°C. for 30 minutes. Thereafter, they were treated with GnRH having a suitable concentration, cultured at 37° C. for another 30 minutes, and then the media was eliminated. The cells were treated with 10 mM of ice-cold formic acid to terminate the reaction, and the cell extracts were mixed with Dowex anionic exchange resins. These resins were washed with distilled water, IP was extracted with 1 M ammonium formate/0.1 M formic acid, and cpm (count per minute) was determined.

bfGnRHR-3 [1] = assay: Inhibition of GnRH-2-induced IP production, GH3 cells expressing bfGnRHR-3; assay type: cell-based, bullfrog
Procedure: as §1

rat GnRHR [2] = target: T1, rat GnRHR (Rattus norvegicus, UniProt P30969); assay: Inhibition of GnRH-induced IP production, GH3 cells expressing rat GnRHR; assay type: cell-based; conditions: rat GnRH receptors
T1 construct: expressed in transfected cells; host or cells: GH3 cells, retrovirus-mediated infection
T1 sequence (P30969 1-327): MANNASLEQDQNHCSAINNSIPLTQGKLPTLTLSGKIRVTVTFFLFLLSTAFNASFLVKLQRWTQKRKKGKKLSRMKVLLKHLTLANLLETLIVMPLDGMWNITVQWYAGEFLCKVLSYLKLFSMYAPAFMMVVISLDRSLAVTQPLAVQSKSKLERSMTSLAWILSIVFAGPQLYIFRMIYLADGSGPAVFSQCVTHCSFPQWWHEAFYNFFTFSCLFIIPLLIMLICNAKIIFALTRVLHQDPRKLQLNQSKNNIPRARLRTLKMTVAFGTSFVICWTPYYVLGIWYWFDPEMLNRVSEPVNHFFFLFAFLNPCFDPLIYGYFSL
Procedure: as §1

Primate GnRH-2 receptor = assay: Inhibition of GnRH-2-induced c-fos-luc luciferase activity, cells expressing Primate GnRH-2 receptor; assay type: cell-based, Primates
Procedure: Complimentary DNA (cDNA) for a Primate GnRH-2 receptor was obtained from a CV-1 cell genome. […] Plasmids having Primate GnRH-2 receptors where transfected into CV-1 cells. To assay the activity of the receptor, c-fos-luc where a luciferase gene is fused with a c-fos promoter was co-transfected as a probe gene. After 48 hours from transfection, the cells were treated with GnRH-2 agonists and then the activity of luciferase was assayed (Seong et al., Endocrinology vol 144 2003, 454-466). In the same manner as in 2-3 above, Primate GnRH-2 receptors were co-transfected along with c-fos-luc reporter genes, and after 48 hours, GnRH-2 and GnRH-2 antagonists were treated thereinto at the same time and then the effect of GnRH-2 antagonists was observed. […] Log IC50 value by antagonists is an average value of experiments that were conducted independently three times. ND stands for “not detected” which means that there are no inhibitory functions.

bfGnRHR-3 [3] = assay: Ligand-receptor binding assay, I125-GnRH-2 competition, membranes of GH3 cells expressing bfGnRHR-3; design: species or system bullfrog; conditions: log of IC50 (negative values); competition with I125-GnRH-2, 4° C., 16 hours
Procedure: (§2) To determine the binding affinity between GnRH and GnRH receptors, GnRH-2 was radiolabeled with I^125. The GH3 cells expressing bfGnRHR-1, bfGnRHR-2, bfGnRHR-3, and rat GnRHR constructed in Example 2-3 above were cultured on 100-mm dishes. After 48 hours, the cells were homogenized to obtain cellular membranes, which were then dissolved in binding buffer (40 mM Tris, pH 7.4, 2 mM MgCl2). 20 μg of membrane proteins were reacted with I^125-GnRH-2 at 4° C. for 16 hours. […] After the reaction was completed, 1^125-GnRH-2 bound to the receptors was filtered using a Brandel harvester, and cpm was measured using a γ-counter.
The GH3 cells expressing bfGnRHR-3 obtained from Example 6-1 above were treated with l^125GnRH-2 and GnRH-2 agonists and antagonists at various concentrations to determine the binding affinity of GnRH-2 agonists and antagonists toward the receptors.

rat GnRHR [4] = target: T1, rat GnRHR; assay: Ligand-receptor binding assay, I125-GnRH-2 competition, membranes of GH3 cells expressing rat GnRHR; conditions: log of IC50 (negative values); competition with I125-GnRH-2, 4° C., 16 hours; read-out: Binding affinity (log IC50 value) (converted)
Procedure: as §2, with “The GH3 cells expressing bfGnRHR-1, bfGnRHR-2, bfGnRHR-3, and rat GnRHR constructed in Example 2-3 above were cultured on 100-mm dishes.” left out

[5] = log of IC50 (negative values), half-maximal inhibition of IP production induced by GnRH-2 (1 nM, 10 nM elsewhere in the source)
[6] = reduction of IP production induced by 1 nM GnRH-2

CC(=O)N[C@H](Cc1ccc2ccccc2c1)C(=O)N[C@H](Cc1ccc(Cl)cc1)C(=O)N[C@H](Cc1cccnc1)C(=O)N[C@@H](CO)C(=O)N[C@@H](Cc1ccc(O)cc1)C(=O)N[C@H](CCCNC(N)=O)C(=O)N[C@@H](Cc1c[nH]c2ccccc12)C(=O)N[C@@H](Cc1ccc(O)cc1)C(=O)N1CCC[C@H]1C(=O)N[C@H](C)C(N)=O [Trptorelix-1, Ac-D2Nal-(4Cl)D-Phe-D-3Pal-Ser-Tyr-D-Cit-Trp-Tyr-Pro-DAlaNH2] (Ac-[d2Nal][dPhe(4-Cl)][d3Pal]SY[dCit]WYP[dA]-NH2)
Log IC50 (bfGnRHR-2; [5]): −8.10 ± 0.08
fold more sensitive than Cetrorelix (bfGnRHR-2; [6]): 100 fold
IP production by antagonist alone (bfGnRHR-2; without GnRH-2): production of IP was not observed
Log IC50 (bfGnRHR-3 [1]; [5]): −8.49 ± 0.11
fold more sensitive than Cetrorelix (bfGnRHR-3 [1]; [6]): about 1000 fold
IP production by antagonist alone (bfGnRHR-3 [1]; without GnRH-2): production of IP was not observed
fold lower effect than Cetrorelix (rat GnRHR [2]): ~60 fold
effect on luciferase activity induced by GnRH-2 (Primate GnRH-2 receptor; GnRH-2 and antagonist treated at the same time): reduced in a concentration-dependent manner
Log IC50 (Primate GnRH-2 receptor; log of IC50 (negative values), reporter c-fos-luc, GnRH-2-induced luciferase, average of three experiments, ND = not detected, no inhibitory functions): −5.74 ± 0.10
Binding affinity (log IC50 value) (bfGnRHR-3 [3]): −11.73 ± 0.19
IC50 (rat GnRHR [4]): 1.78 pM
